Data on 61 compounds can be found in a melting point compilation (Tetko et al.; mined from patent text by program, amines drawn as free bases though some values may be those of a salt).

The compound `O=CNC1Cc2cc(Br)cc([N+](=O)[O-])c2NC1=O` (stereo unspecified) had a melting point of 232 to 235 °C.
Compound `CCCc1nc2ccccc2n1Cc1ccc(-c2ncccc2C(=O)O)cc1` gave a melting point of 238 to 239 °C.
Compound `CC(=O)Nc1ccc(-c2cc(-c3c(-c4ccccn4)nc4ccccn34)ccn2)cc1` registered a melting point of 133 °C.
Turning to `Cc1c(CC(=O)O)oc2ccc(Cc3ccccc3)cc12`, the melting point is 149 to 150 °C.
As for `CCOC(=O)c1cc(NC(=O)C(Cc2ccccc2)NC(=O)OC(C)(C)C)c[nH]1` (stereo unspecified), the figure is 148 to 151 °C; as for `CN1C(=O)C2C3C=CC(C3)C2(c2ccc(F)c(F)c2)C1=O` (stereo unspecified), 116 to 120 °C; as for `O=C(N[C@H]1CCN(C(=O)c2cc(C(F)(F)F)cc(C(F)(F)F)c2)[C@H](Cc2ccc(Cl)cc2)C1)c1cc(=O)c2cc(F)ccc2o1`, 215 to 218 °C.
With `COc1ccc(S(=O)(=O)C(CCCCOc2ccccc2)(Cc2cccnc2)C(=O)NO)cc1` (stereo unspecified), the melting point turned out to be 68 °C.
As to `CC(=O)N(O)Cc1ccc2c(c1)OCc1ccccc1C2=O`, the melting point lay within 65 to 115 °C.
In the case of `O=C1C(O)N(c2ccc(Oc3ccccc3)cc2)C(=S)N1c1ccccc1` (stereo unspecified), the melting point was 160 °C.
As for `NC(=O)Nc1ccc(C2=NNC(=O)Cc3cc4c(cc32)OCO4)cc1`, the figure is 238 to 241 °C; as for `Cc1ccnc2ccc(Cc3cnc(N)nc3N)cc12`, 262 to 268 °C; as for `CN1C(=O)C(C)(C)N=C(c2ccccc2F)c2cc(N)cc(Cl)c21`, 169 to 172 °C.
Consider `Fc1cc2cc[nH]c2cc1Cl`, for which the melting point is 105 to 107 °C.
As for `Cc1noc(NS(=O)(=O)c2ccccc2-c2ccc(-c3ncco3)cc2CC(=O)NC(C)(C)C)c1C`, the melting point is 117 to 123 °C.
For `Nc1sc2c(c1C(=O)c1ccccn1)CCN(Cc1ccccc1)C2`, the melting point lay within 67 to 71 °C.
The compound `CCCCCc1cc2c(nc(O)n2CC2CCN(C(=O)C3CC3)CC2)c(N)n1` displayed a melting point of 205 to 207 °C.
On to `O=C(ON1C(=O)CCC1=O)c1ccc(-c2ccc(S(=O)(=O)NCCO)cc2)[nH]c1=O`, for which the melting point was 204 to 205 °C.
`COC(=O)C1CCSC(C)(C)C(=O)N1` (stereo unspecified) yielded a melting point of 172 to 174 °C.
Regarding `COC(=O)CCc1ccc(C#CC2(O)CN3CCC2CC3)c(CO)c1` (stereo unspecified), the melting point turned out to be 35.8 °C.
On to `O=[N+]([O-])c1ccc(O)c(CNCCC(F)=C(F)F)c1`, for which the melting point is 96 to 98 °C.
Turning to `COc1ccc2c(=O)n3c(cc2c1)SCCC3`, the melting point is 86 to 87 °C.
As for `COc1ccc(/C=C/c2cc(/C=C/c3ccc4cc[nH]c4c3)[nH]n2)c(OC)c1`, the figure is 121 to 133 °C; as for `COc1ccccc1N1CCN(S(=O)(=O)c2ccc(/C=C/C(=O)NO)cc2)CC1`, 225 to 226 °C; as for `CCOC(=O)C(C(=O)C(C)C)C(CC(=O)C(C)(C)C)c1ccc(F)cc1` (stereo unspecified), 80 to 89 °C.
With `COc1cc2c(cc1C(=O)COc1ccc(C(=O)OCc3ccccc3)c(O)c1)C(C)(C)CCC2(C)C` the figure was 118 to 119 °C.
For the compound `N#Cc1cnc2cc(/C=C/c3ccncc3)sc2c1Nc1ccc(Oc2ccccc2)cc1`, the melting point is 240 to 241 °C.
`CC(OCc1cc2nc(Cl)ccc2n1S(=O)(=O)c1ccccc1)C(=O)O` (stereo unspecified) showed a melting point of 150 °C.
In turn, `O=C1CSC(c2cccc(Cl)c2)c2cc(C(=O)c3ccc(Cl)cc3)ccc2N1` (stereo unspecified) gave a melting point of 222 °C.
`CC(C)C(=N)Nc1ccccc1N1CCOCC1`: the melting point was found to be 138 °C.
Regarding `Cc1sc(-n2cccc2C=O)c(C#N)c1C`, the melting point is 154 °C.
For the compound `COC1CC(NC(=O)C(F)(F)F)C(OC)C(C)O1` (stereo unspecified), the melting point lay in the range of 55 to 60 °C.
Compound `CC1CCN(c2ccnc(NC(=O)NCc3ccccn3)c2)C1=O` (stereo unspecified) had a melting point of 190 to 191 °C.
As for `CC(C)NC(=NC(=Nc1ccccc1)N1CCOCC1)C(C)C`, the figure is 132 to 135 °C.
Compound `Clc1ccc2c(C3=CCN(CCNc4ccccn4)CC3)c[nH]c2c1` registered a melting point of 217 to 219 °C.
With `CC1CCC(C(C)C)C(C(=O)NC(C)(C)CO)C1` (stereo unspecified) the figure was 123 °C.
In turn, `CC1(CC(=O)O)OCCc2nc(-c3ccccc3)sc21` (stereo unspecified) gave a melting point of 143 to 145 °C.
On to `Cc1c(C)c2c(c(C)c1N)C(O)(c1ccc3ccccc3c1)C(C)(C)O2` (stereo unspecified), for which the melting point lay in the range of 121 to 122 °C.
In the case of `COc1cc2c(c(F)c1CNC1CCCNC1c1ccccc1)N(C)C(=O)CC2(C)C` (stereo unspecified), the melting point was greater than 270 °C.
`Cc1nccn1-c1cc(NC(=O)OC(C)(C)C)cc(C(F)(F)F)c1` registered a melting point of 203 to 208 °C.
In turn, `CCOc1ccc(-n2nc(C(F)(F)F)nc2-c2ccc(S(C)(=O)=O)cc2)cc1` yielded a melting point of 112 °C.
As for `COc1c(C)c(C)cc(C)c1C(O)(c1ccc(C(C)C)cc1)C1CCN(Cc2ccccc2)CC1` (stereo unspecified), the figure is 154 to 156 °C; as for `CCNC(=O)Nc1ccc(-c2sc3c(c2CN(C)CCOC)c(=O)n(-c2ccc(N)cc2)c(=O)n3Cc2c(F)cccc2F)cc1`, 205 to 207 °C; as for `Cn1cc(C#N)c(Nc2ccc([N+](=O)[O-])cc2N)n1`, 204 °C.
As to `CCCCCCCCCCCCC1=C(OC(=O)CC)C(=O)c2ccccc2C1=O`, the melting point lay in the range of 42 to 44 °C.
`CC(NC(=O)CBr)c1ccccc1` (stereo unspecified) came in with a melting point of 60 to 61 °C.
With `CCc1cc(C2(c3cccc(-c4cccnc4F)c3)N=C(N)N3CCCN=C32)cc(CC)n1` (stereo unspecified) the figure was 174 to 176 °C; with `Cc1cc(N(C)CCO)cc(C)n1`, 139 to 144 °C; with `NS(=O)(=O)c1cccc(NC(=O)c2cnn3c(C(F)(F)F)cc(-c4ccc(F)c(F)c4)nc23)c1`, 275 °C.
In turn, `CC(C)(C)OC(=O)N1C[C@@H](Oc2ccc(N)cc2)C[C@@H]1C(=O)Nc1cc(C(C)(C)C)c(O)c(C(C)(C)C)c1` registered a melting point of 104 to 106 °C.
In the case of `c1csc(Nc2ccnc3cn[nH]c23)c1`, the melting point was 255 to 259 °C.
Turning to `Cc1cc(Oc2ccc3nc(COc4ccc(CC5SC(=O)NC5=O)cc4)n(C)c3c2)cc(C)c1NC(=O)Nc1ccc([N+](=O)[O-])cc1` (stereo unspecified), the melting point lay within 178 to 180 °C.
In turn, `COc1cc(NC(=O)NS(=O)(=O)c2ccccc2Cl)nc(OC)n1` came in with a melting point of 193 to 196 °C.
With `COc1cccc(C2C(=O)NC(=O)C2c2cn3c4c(cccc24)CCC3)c1` (stereo unspecified) the figure was 87 to 91 °C; with `CCOC(=O)c1cc(Cl)cnc1NC(=O)Cc1cccc(Oc2ccccc2)c1`, 103 to 104 °C; with `Cc1c(C)c(OCC(=O)N2CCN(c3ccc(N=C(N)c4cccs4)cc3)CC2)c(C)c(C)c1O`, 210 to 212 °C.
As to `CCC(=O)Oc1ccc(C(=O)c2ccccc2)cc1`, the melting point was 53.5 to 54.5 °C.
The compound `COC(=O)C=C(Nc1ccccc1C#N)C(=O)OC` had a melting point of 116 to 118 °C.
Compound `CC(=CC(C)(O)c1ccc(Cl)cc1Cl)n1cncn1` (stereo unspecified) showed a melting point of 101 °C.
`CCCCCCCNC(=O)Nc1ccc(N(C)C)cc1C(=O)NCC1CC2CCC(C1)N2C(c1ccccc1)c1ccccc1` (stereo unspecified) came in with a melting point of 195 °C.
As for `O=C1c2ccccc2CCC1n1cncn1` (stereo unspecified), the figure is 96 to 98 °C.
